Columns and labels:
Aurora-B = Aurora-B (Homo sapiens, UniProt Q96GD4); assay: Aurora-B enzyme assay (identical protocol as Aurora-A); assay type: biochemical; details: IC50 range class; read-out: Inhibitor Activity vs Aurora-B
Outline: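 Aurora-B was assayed in the same way as Aurora-A: kinase and γ-33P-ATP were incubated for 1 h at 37 °C in myelin basic protein-coated scintillation plates. After washing, bound radioactivity was counted. IC50 values came from a variable-slope sigmoidal fit of % activity against log compound concentration.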

HCT 116 cell line = assay: Cell inhibition assay (SRB cell viability), HCT 116; assay type: cell-based; details: Homo sapiens, IC50 range class, 72 h, read-out: Inhibitor Activity vs HCT 116 cell line
Outline: (§1)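 Log-phase cells seeded at 1000 cells/well, grown 24 h, then exposed to compounds (20 uM final) for 72 h. Viability read by sulphorhodamine B staining as % inhibition versus DMSO; IC50 from eight-point sigmoidal variable-slope fit.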

U937 cell line = assay: Cell inhibition assay (SRB cell viability), U937; assay type: cell-based; details: Homo sapiens, U-937, IC50 range class, 72 h, read-out: Inhibitor Activity vs U937 cell line
Outline: as §1

Aurora-A = biological target: T1, Aurora-A (Homo sapiens, UniProt O14965); assay: Aurora-A enzyme assay (MBP-coated Flashplate, γ-33P-ATP); assay type: biochemical; details: IC50 range class; read-out: Inhibitor Activity vs Aurora-A
T1 sequence (O14965 1-403): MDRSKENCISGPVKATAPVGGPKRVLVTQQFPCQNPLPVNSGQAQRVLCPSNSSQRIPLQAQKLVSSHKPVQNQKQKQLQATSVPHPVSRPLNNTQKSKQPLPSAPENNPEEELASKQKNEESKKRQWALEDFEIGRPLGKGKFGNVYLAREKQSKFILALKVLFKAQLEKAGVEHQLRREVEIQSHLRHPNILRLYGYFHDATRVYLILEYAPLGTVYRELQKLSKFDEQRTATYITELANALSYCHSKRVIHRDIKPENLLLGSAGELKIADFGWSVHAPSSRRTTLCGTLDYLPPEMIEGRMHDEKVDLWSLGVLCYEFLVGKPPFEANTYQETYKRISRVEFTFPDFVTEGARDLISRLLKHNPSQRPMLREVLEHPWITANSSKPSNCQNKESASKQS
Description: The ability of compounds to inhibit Aurora-A activity was measured using a simple microplate assay for Aurora-A activity, also suitable for high-throughput screening. In brief, γ-^33P-ATP and Aurora-A were incubated in a myelin basic protein (MBP)-coated Flashplate® to generate a scintillation signal. The plates were formatted to contain the inhibitor, controls, positive control (staurosporin) and blanks. After incubation at 37° C. for 1 hour and a subsequent wash procedure, the plates were read on a TopCount-NXT™.
The 384-well basic Flashplate® and the γ-^33P-ATP were obtained from PerkinElmer Life Sciences, Boston, Mass.
IC50 values were determined by non-linear regression analysis, after fitting the data point results to the equation for sigmoidal dose response with variable slope (% activity against log concentration of compound), using Graphpad Prism software.
Full experimental procedure for this assay can be found within the following reference: Sun, C Journal of Biomolecular Screening 9(5), 2004, 391.

HUT cell line = assay: Cell inhibition assay (SRB cell viability), HUT; assay type: cell-based; details: IC50 range class, 72 h, read-out: Inhibitor Activity vs HUT cell line
Outline: as §1

Sequence of Aurora-B (Q96GD4 whole entry): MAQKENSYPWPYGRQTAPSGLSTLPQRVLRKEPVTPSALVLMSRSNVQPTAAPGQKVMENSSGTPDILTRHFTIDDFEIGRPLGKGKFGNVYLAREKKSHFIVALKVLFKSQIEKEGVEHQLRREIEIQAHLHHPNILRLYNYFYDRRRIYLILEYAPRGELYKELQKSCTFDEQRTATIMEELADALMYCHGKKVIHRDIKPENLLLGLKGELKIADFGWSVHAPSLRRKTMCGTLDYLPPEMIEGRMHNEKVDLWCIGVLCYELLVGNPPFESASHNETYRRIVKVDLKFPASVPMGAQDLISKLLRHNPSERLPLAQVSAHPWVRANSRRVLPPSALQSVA

IC50 (Aurora-B) [nM] | IC50 (HCT 116 cell line) [nM] | IC50 (U937 cell line) [nM] | IC50 (Aurora-A) [nM] | SMILES | IC50 (HUT cell line) [nM]
2000 to 5000 | < 1000 | < 1000 | < 2000 | COc1cc2c(Oc3ccc(NC(=O)Nc4ccc(C(F)(F)F)cc4)cc3)ccnc2cc1OCC[C@H](N)C(=O)OC1CCCC1 [Example 93, (S)-2-Amino-4-(6-methoxy-4-{4-[3-(4-trifluoromethyl-phenyl)-ureido]-phenoxy}-quinolin-7-yloxy)-butyric acid cyclopentyl ester] | < 1000
2000 to 5000 | < 1000 | < 1000 | 2000 to 5000 | COc1cc2c(Oc3ccc(NC(=O)Nc4ccccc4)cc3)ccnc2cc1OCC[C@H](N)C(=O)OC1CCCC1 [Example 95, (S)-2-Amino-4-{6-methoxy-4-[4-(3-phenyl-ureido)-phenoxy]-quinolin-7-yloxy}-butyric acid cyclopentyl ester] | < 1000
< 2000 | < 1000 | < 1000 | 2000 to 5000 | COc1cc2c(Oc3ccc(NC(=O)Nc4ccccc4)cc3)ccnc2cc1OCC[C@@H](N)C(=O)OC1CCCC1 [Example 101, (R)-2-Amino-4-{6-methoxy-4-[4-(3-phenyl-ureido)-phenoxy]-quinolin-7-yloxy}-butyric acid cyclopentyl ester] | < 1000
2000 to 5000 | < 1000 | < 1000 | 2000 to 5000 | COc1cc2c(Oc3ccc(NC(=O)Nc4ccccc4)cc3)ccnc2cc1OCCC[C@H](N)C(=O)OC1CCCC1 [Example 111, (S)-2-Amino-5-{6-methoxy-4-[4-(3-phenyl-ureido)-phenoxy]-quinolin-7-yloxy}-pentanoic acid cyclopentyl ester] | < 1000

Continued, molecule first:

SMILES | IC50 (Aurora-B) [nM] | IC50 (HCT 116 cell line) [nM] | IC50 (U937 cell line) [nM] | IC50 (Aurora-A) [nM] | IC50 (HUT cell line) [nM]
COc1cc2c(Sc3ccc(NC(=O)C4CC4)cc3)ccnc2cc1OCC[C@H](N)C(=O)OC1CCCC1 [Example 20, (S)-2-Amino-4-{4-[4-(cyclopropanecarbonyl-amino)-phenylsulfanyl]-6-methoxy-quinolin-7-yloxy}-butyric acid cyclopentyl ester] | > 5000 | < 1000 | < 1000 | > 5000 | < 1000
COc1cc2c(Oc3ccc(NC(=O)c4ccccc4)cc3)c(Br)cnc2cc1OCC[C@H](N)C(=O)OC1CCCC1 [Example 32] | > 5000 | > 5000 | 1000 to 5000 | > 5000 | 1000 to 5000
COc1cc2c(Oc3ccc(NC(=O)c4ccccc4)cc3)ccnc2cc1OCC[C@H](N)C(=O)OC(C)(C)C [Example 50, (S)-2-Amino-4-[4-(4-benzoylamino-phenoxy)-6-methoxy-quinolin-7-yloxy]-butyric acid tert-butyl ester] | 2000 to 5000 | < 1000 | < 1000 | 2000 to 5000 | < 1000
COc1cc2c(Oc3ccc(NC(=O)c4cccc(F)c4)cc3)ccnc2cc1OCC[C@H](N)C(=O)OC1CCCC1 [Example 55, (S)-2-Amino-4-{4-[4-(3-fluoro-benzoylamino)-phenoxy]-6-methoxy-quinolin-7-yloxy}-butyric acid cyclopentyl ester] | 2000 to 5000 | < 1000 | < 1000 | 2000 to 5000 | < 1000
COc1cc2c(Oc3ccc(NC(=O)c4ccccc4)cc3)ccnc2cc1OCC[C@@H](N)C(=O)OC1CCCC1 [Example 99, (R)-2-Amino-4-[4-(4-benzoylamino-phenoxy)-6-methoxy-quinolin-7-yloxy]-butyric acid cyclopentyl ester] | 2000 to 5000 | < 1000 | < 1000 | 2000 to 5000 | < 1000
COc1cc2c(Oc3ccc(NC(=O)c4ccccc4)cc3)ccnc2cc1OCCC[C@H](N)C(=O)OC1CCCC1 [Example 109, (S)-2-Amino-5-[4-(4-benzoylamino-phenoxy)-6-methoxy-quinolin-7-yloxy]-pentanoic acid cyclopentyl ester] | 2000 to 5000 | < 1000 | < 1000 | 2000 to 5000 | < 1000

— patent US8148531B2 (Chroma Therapeutics Ltd., priority 2005, dated 2012)
